Assay results published in US6528096B1, “Carrier mixed with additives having lubricant properties for preparing powdery pharmaceutical compositions for inhalation” (Chiesi Farmaceutical S.p.A., priority 1999, dated 2003).

Legend:
dog = assay: Toxicity studies in dog; type: in vivo
healthy volunteers = assay: Acute tolerance trial in healthy volunteers; type: in vivo, humans; conditions: single dose 25.72 mg lactose and 0.065 mg magnesium stearate via Pulvinal inhaler
Procedure: Furthermore, acute and long term tolerance trials were carried out to evaluate toxicity of magnesium stearate in humans.
In the former, 18 healthy volunteers, included in a double blind randomised controlled cross-over design study, received a single dose containing 25.72 mg of lactose and 0.065 mg of magnesium stearate via Pulvinal® inhaler. The introduction of 0.25% magnesium stearate in powdery pharmaceutical formulation resulted to be safe.

[1] = Water contact angle and degree of molecular surface coating of carrier; type: physicochemical; conditions: single component, Table 6 footnote
Procedure: Advantageously, the carrier particles and the lubricant particles are mixed until the degree of molecular surface coating is more than 10% as determined by water contact angle measurement. Preferably, carrier particles and lubricant particles made of magnesium stearate are mixed until the water contact angle of the ‘coated’ carrier particles is more than 36° corresponding to more than 10% degree of molecular surface coating; more preferably, the water contact angle should be more than 50° corresponding to more than 23% decree of molecular surface coating.
40.528 kg (99.75% w/w) of α-Lactose monohydrate fraction 90-150 μm and 0.102 kg (0.25% w/w) of magnesium stearate were mixed in a Turbula mixer T 100 at 16 r.p.m. for several hours. At different mixing times samples were withdrawn and tested for uniformity of distribution of magnesium stearate, particle size, water contact angle and degree of molecular surface coating calculated according to lassie et al. (Transactions of the Faraday Society 40; 546, 1944). To validate the process, three batches (40 kg) of the carrier were prepared.

| Molecule | Safety of the respirable amount (dog) | Safety, acute tolerance (healthy volunteers) | water contact angle [1] |
| --- | --- | --- | --- |
| Magnesium stearate | safe | safe | Magnesium stearate water contact angle 118° |
| O.OC[C@H]1O[C@@H](O[C@H]2[C@H](O)[C@@H](O)[C@@H](O)O[C@@H]2CO)[C@H](O)[C@@H](O)[C@H]1O [α-Lactose monohydrate] |  |  | α-Lactose monohydrate water contact angle 12° |
